Measurements reported in US12358892B2, “Metalloenzyme inhibitors for treating cancers, Alzheimer's disease, hemochromatosis, and other disorders” (Miralogx LLC, priority 2020, dated 2025).
Entries after “also recorded” stand apart in the source; their conditions may differ.

Legend:
[1] = system: 12 human primary cell-based systems; experiment: BioMAP Diversity PLUS panel, protein biomarker readouts and cytotoxicity
Description: This example describes testing the compound prepared in Example 1 in the BioMAP Diversity PLUS (Eurofins Discovery, Burlingame, California) panel of 12 human primary cell-based systems designed to model different aspects of the human body in an in vitro format. The 12 systems in the Diversity PLUS panel allow test agent characterization in an unbiased way across a broad set of systems modeling various human disease states. BioMAP systems are constructed with one or more primary cell types from healthy human donors, with stimuli (such as cytokines or growth factors) added to capture relevant signaling networks that naturally occur in human tissue or pathological conditions. Vascular biology is modeled in both a Th1 (3C system) and a Th2 (4H system) inflammatory environment, as well as in a Th1 inflammatory state specific to arterial smooth muscle cells (CASM3C system). Additional systems recapitulate aspects of the systemic immune response including monocyte-driven Th1 inflammation (LPS system) or T cell stimulation (SAg system), chronic Th1 inflammation driven by macrophage activation (lMphg system) and the T cell-dependent activation of B cells that occurs in germinal centers (BT system). The BE3C system (Th1) and the BF4T system (Th2) represent airway inflammation of the lung, while the MyoF system models myofibroblast-lung tissue remodeling. Lastly, skin biology is addressed in the KF3CT system modeling Th1 cutaneous inflammation and the HDF3CGF system modeling wound healing.
The X-axis lists the quantitative protein-based biomarker readouts measured in each system. The Y-axis represents a log-transformed ratio of the biomarker readouts for the drug-treated sample (n=1) over vehicle controls (n≥6). The grey region around the Y-axis represents the 95% significance envelope generated from historical vehicle controls. Biomarker activities are annotated when two or more consecutive concentrations change in the same direction relative to vehicle controls, are outside of the significance envelope, and have at least one concentration with an effect size >20% (|log 10 ratio|>0.1). Biomarker key activities are described as modulated if these activities increase in some systems, but decrease in others. Cytotoxicity is indicated on the profile plot by a thin black arrow above the X-axis, and antiproliferative effects are indicated by a thick grey arrow. Cytotoxicity and antiproliferative arrows only require one concentration to meet the indicated threshold for profile annotation. As summarized in Table 2 below, the compound was active with 35 annotated readouts. Specifically, the compound impacted inflammation-related activities (decreased Eotaxin 3, VCAM-1, MCP-1, SAA, sTNFα, MIP-1α; increased IL-1α, IL-6; modulated IL-8), immunomodulatory activities (decreased CD40, sIL-1β, sIgG, M-CSF, sIL-17A, sIL-6, sIL-17F, sIL-2), tissue remodeling activities (decreased PAI-1, uPAR, αSMA, Keratin 8/18; increased collagen I, MMP-1), and hemostasis-related activities (increased TF).
BioMAP® panels consist of human primary cell-based systems designed to model different aspects of the human body in an in vitro format. BioMAP® systems are constructed with one or more primary cell types from healthy human donors, with stimuli (such as cytokines or growth factors) added to capture relevant signaling networks that naturally occur in human tissue or pathological conditions. Vascular biology is modeled in both a Th1 (3C system) and a Th2 (4H system) inflammatory environment, as well as in a Th1 inflammatory state specific to arterial smooth muscle cells (CASM3C system). Additional systems recapitulate aspects of the systemic immune response including monocyte-driven Th1 inflammation (LPS system) or T cell stimulation (SAg system), chronic Th1 inflammation driven by macrophage activation (Mphg system) and the T cell-dependent activation of B cells that occurs in germinal centers (BT system). […]

fibroblasts = experiment: BioMAP proliferation readout, fibroblasts; assay type: cell-based, human; details: 670 μM; concentrations not associated with cytotoxicity
Description: (§1) The X-axis lists the quantitative protein-based biomarker readouts measured in each system. The Y-axis represents a log-transformed ratio of the biomarker readouts for the drug-treated sample (n=1) over vehicle controls (n≥6). The grey region around the Y-axis represents the 95% significance envelope generated from historical vehicle controls. Biomarker activities are annotated when two or more consecutive concentrations change in the same direction relative to vehicle controls, are outside of the significance envelope, and have at least one concentration with an effect size >20% (|log 10 ratio|>0.1). Biomarker key activities are described as modulated if these activities increase in some systems, but decrease in others. […] As summarized in Table 2 below, the compound was active with 35 annotated readouts. […]
(§2) Human primary cells in BioMAP® systems are used at early passage (passage 4 or earlier) to minimize adaptation to cell culture conditions and preserve physiological signaling responses. […] Test agents prepared in either DMSO (small molecules; final concentration ≤0.1%) or PBS (biologics) are added at the indicated concentrations 1-hr before stimulation, and remain in culture for 24-hrs or as otherwise indicated (48-hrs, MyoF system; 72-hrs, BT system (soluble readouts); 168-hrs, BT system (secreted IgG)). […]

[2] = system: human primary endothelial cells; experiment: BioMAP proliferation readout, endothelial cells; assay type: cell-based; details: 670 μM, 220 μM, 74 μM; concentrations not associated with cytotoxicity
Description: as §1, §2

B cells = experiment: BioMAP proliferation readout, B cells; assay type: cell-based, human; details: 670 μM, 220 μM, 74 μM; concentrations not associated with cytotoxicity
Description: as §1, §2

[3] = system: coronary artery smooth muscle cells; experiment: BioMAP proliferation readout, coronary artery smooth muscle cells; assay type: cell-based, human; details: 670 μM, 220 μM, 74 μM; concentrations not associated with cytotoxicity
Description: as §1, §2

T cells = experiment: BioMAP proliferation readout, T cells; assay type: cell-based, human; details: 670 μM, 220 μM; concentrations not associated with cytotoxicity
Description: as §1, §2

[4] = Inflammation-related activities
[5] = lower three concentrations tested, immunomodulatory
[6] = lower three concentrations tested, inflammation-related
[7] = lower three concentrations tested, tissue remodeling

## c1ncc(C2=NCCC2)cc1C1=NCCC1 [Example 1]
[1]; Diversity PLUS Panel profile
  annotated readouts: 35
[1]; Immunomodulatory activities
  Decreased Activity: M-CSF: decreased; also recorded: M-CSF
  Decreased Activity: sIL-6: decreased; also recorded: inhibited; also recorded: sIL-6
  Decreased Activity: sIL-10 (Table 2) / sIL-1β: decreased
  Decreased Activity: sIL-17F: decreased; also recorded: SIL-17F
  Decreased Activity: sIgG: decreased and sigG
  Decreased activity: CD40: decreased and CD40
  Decreased activity: sIL-2: decreased
  Decreased activity: sIL-17A: decreased; also recorded: SIL-17A
[1]; [4]
  Decreased Activity: Eotaxin 3: decreased and Eot3
  Decreased Activity: MIP-1α: decreased
  Decreased Activity: SAA: decreased and SAA
  Decreased Activity: sTNFα: decreased; also recorded: inhibited; also recorded: sTNFα
  Decreased activity: MCP-1: decreased; also recorded: MCP-1
  Decreased activity: VCAM-1: decreased; also recorded: VCAM-1
  Increased Activity: IL-1α: increased and IL1a
  Increased Activity: IL-6: increased and IL6
  Modulated Activity: IL-8: modulated and IL8
[1]; Tissue remodeling activities
  Decreased Activity: Keratin 8/18: decreased; also recorded: Ker8-18
  Decreased Activity: PAI-1: decreased; also recorded: PAI-1
  Decreased Activity: uPAR: decreased and uPAR
  Decreased Activity: αSMA: decreased and aSMA
  Increased Activity: MMP-1: increased; also recorded: MMP1,
  Increased Activity: collagen I: increased; also recorded: Col-1
[1]; lower three concentrations tested
  annotated readouts: 23
[1]; lower three concentrations tested, hemostasis-related
  TF: increased
[1]; [5]
  sIL-1β: decreased
  sIL-2: decreased
  sIL-6: decreased
  sIL-17A: decreased
  sIL-17F: decreased
  sIgG: decreased
[1]; [6]
  Eotaxin 3: decreased
  IL-1α: increased
  IL-6: increased
  IL-8: increased
  MCP-1: decreased
  SAA: decreased
  VCAM-1: decreased
  sTNFα: decreased
[1]; [7]
  MMP-1: increased
  PAI-1: decreased
  collagen I: increased
fibroblasts
  antiproliferative effect on fibroblasts: antiproliferative
[2]
  antiproliferative effect on human primary endothelial cells: antiproliferative
B cells
  antiproliferative effect on B cells: antiproliferative
[3]
  antiproliferative effect on coronary artery smooth muscle cells: antiproliferative
T cells
  antiproliferative effect on T cells: antiproliferative
